Target: human F508del-CFTR (Homo sapiens, UniProt P13569, DEL508-508)
Experiment: F508del-CFTR cell surface expression (corrector activity), DiscoveRx ß-galactosidase complementation chemiluminescence assay in recombinant U2OS cell line;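 further: U2OS cells co-expressing ProLink-tagged F508del-CFTR and a membrane-anchored enzyme acceptor, where more surface CFTR restores β-galactosidase activity measured by chemiluminescence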
Conditions: U2OS cell line, 16h compound incubation; for Emax: in relation to the Emax of the corrector lumacaftor (=100%), arithmetic mean values; for EC50: EC50, F508del-CFTR cell surface expression, geomean values

human F508del-CFTR, sequence (P13569 with tags, fused parts or gaps DEL508-508): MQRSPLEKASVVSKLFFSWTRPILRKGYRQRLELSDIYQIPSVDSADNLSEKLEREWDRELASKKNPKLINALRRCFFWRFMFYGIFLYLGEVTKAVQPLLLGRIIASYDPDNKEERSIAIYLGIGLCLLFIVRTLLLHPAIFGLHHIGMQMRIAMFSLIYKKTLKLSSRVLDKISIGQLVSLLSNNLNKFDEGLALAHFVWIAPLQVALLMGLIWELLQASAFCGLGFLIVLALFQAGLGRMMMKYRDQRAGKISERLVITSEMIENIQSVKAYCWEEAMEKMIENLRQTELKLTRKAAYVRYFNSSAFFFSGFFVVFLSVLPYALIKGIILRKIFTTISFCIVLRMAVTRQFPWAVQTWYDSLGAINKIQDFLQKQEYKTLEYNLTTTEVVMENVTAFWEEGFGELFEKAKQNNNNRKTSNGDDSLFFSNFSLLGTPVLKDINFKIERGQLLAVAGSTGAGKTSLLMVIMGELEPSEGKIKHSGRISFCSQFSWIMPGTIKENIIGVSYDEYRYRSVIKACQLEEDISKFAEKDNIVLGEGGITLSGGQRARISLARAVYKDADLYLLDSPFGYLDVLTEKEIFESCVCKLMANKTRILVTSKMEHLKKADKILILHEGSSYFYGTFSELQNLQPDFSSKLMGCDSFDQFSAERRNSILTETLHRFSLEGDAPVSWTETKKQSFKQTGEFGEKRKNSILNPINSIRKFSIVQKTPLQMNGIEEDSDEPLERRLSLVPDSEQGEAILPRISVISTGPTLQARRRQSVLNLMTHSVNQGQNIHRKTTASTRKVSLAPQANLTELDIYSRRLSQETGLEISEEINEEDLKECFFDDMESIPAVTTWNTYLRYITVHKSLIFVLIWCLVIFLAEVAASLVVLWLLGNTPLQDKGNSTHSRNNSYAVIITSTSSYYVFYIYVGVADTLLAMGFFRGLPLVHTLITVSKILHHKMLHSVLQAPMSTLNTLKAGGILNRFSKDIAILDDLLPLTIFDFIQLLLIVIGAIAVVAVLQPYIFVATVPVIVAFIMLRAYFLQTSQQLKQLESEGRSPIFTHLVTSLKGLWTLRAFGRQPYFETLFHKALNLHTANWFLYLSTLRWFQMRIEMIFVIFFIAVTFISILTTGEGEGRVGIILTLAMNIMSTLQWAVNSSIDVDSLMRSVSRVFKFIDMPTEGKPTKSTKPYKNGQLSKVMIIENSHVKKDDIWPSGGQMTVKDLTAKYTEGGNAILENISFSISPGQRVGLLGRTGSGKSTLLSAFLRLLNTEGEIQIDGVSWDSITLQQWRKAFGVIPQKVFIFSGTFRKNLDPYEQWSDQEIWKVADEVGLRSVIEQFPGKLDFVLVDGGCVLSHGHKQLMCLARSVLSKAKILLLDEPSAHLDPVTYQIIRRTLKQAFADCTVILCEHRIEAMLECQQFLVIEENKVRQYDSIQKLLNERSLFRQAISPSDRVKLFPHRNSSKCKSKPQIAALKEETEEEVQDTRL

Emax (U2OS) | EC50 | Structure (SMILES) | Emax
118% |  | CN1C(=O)C[C@@H](C(=O)NCCc2ccc3c(c2)OCO3)NC(=O)c2c(ccc3ccccc23)OC[C@@H](Cc2ccccc2)NC(=O)CN(C[C@@H]2CCCCO2)C(=O)[C@@H]1CC1CCCCC1 (racemic) [Example 285, (3RS,7S,13R)-N-(2-(benzo[d][1,3]dioxol-5-yl)ethyl)-13-benzyl-7-(cyclohexylmethyl)-6-methyl-1,5,8,11-tetraoxo-9-(((S)-tetrahydro-2H-pyran-2-yl)methyl)-1,2,3,4,5,6,7,8,9,10,11,12,13,14-tetradecahydronaphtho[1,2-p][1]oxa[4,7,10,14]tetraazacycloheptadecine-3-carboxamide] | 
144% |  | CN1C(=O)C[C@@H](C(=O)NCCc2ccc3c(c2)OCO3)NC(=O)c2c(ccc3ccccc23)OC[C@@H](Cc2ccccc2)NC(=O)CN(C[C@H]2CCCCO2)C(=O)[C@@H]1CC1CCCC1 (racemic) [Example 286, (3RS,7S,13R)-N-(2-(benzo[d][1,3]dioxol-5-yl)ethyl)-13-benzyl-7-(cyclopentylmethyl)-6-methyl-1,5,8,11-tetraoxo-9-(((R)-tetrahydro-2H-pyran-2-yl)methyl)-1,2,3,4,5,6,7,8,9,10,11,12,13,14-tetradecahydronaphtho[1,2-p][1]oxa[4,7,10,14]tetraazacycloheptadecine-3-carboxamide] | 
154% | 0.207 µM | CN1C(=O)C[C@@H](C(=O)NCCc2ccc3c(c2)OCO3)NC(=O)c2c(ccc3ccccc23)OC[C@@H](Cc2ccccc2)NC(=O)CN(C[C@H]2CCCCO2)C(=O)[C@@H]1CC1CCCCC1 (racemic) [Example 287, (3RS,7S,13R)-N-(2-(benzo[d][1,3]dioxol-5-yl)ethyl)-13-benzyl-7-(cyclohexylmethyl)-6-methyl-1,5,8,11-tetraoxo-9-(((R)-tetrahydro-2H-pyran-2-yl)methyl)-1,2,3,4,5,6,7,8,9,10,11,12,13,14-tetradecahydronaphtho[1,2-p][1]oxa[4,7,10,14]tetraazacycloheptadecine-3-carboxamide] | 
175% | 0.147 µM | CN1C(=O)C[C@@H](C(=O)NCCc2ccc3c(c2)OCO3)NC(=O)c2c(ccc3ccccc23)OC[C@@H](Cc2ccccc2)NC(=O)CN(CC[C@H]2CCCCO2)C(=O)[C@@H]1CC1CCCC1 (racemic) [Example 288, (3RS,7S,13R)-N-(2-(benzo[d][1,3]dioxol-5-yl)ethyl)-13-benzyl-7-(cyclopentylmethyl)-6-methyl-1,5,8,11-tetraoxo-9-(2-((SR)-tetrahydro-2H-pyran-2-yl)ethyl)-1,2,3,4,5,6,7,8,9,10,11,12,13,14-tetradecahydronaphtho[1,2-p][1]oxa[4,7,10,14]tetraazacycloheptadecine-3-carboxamide] | 
160% | 0.186 µM | CN1C(=O)C[C@@H](C(=O)NCCc2ccc3c(c2)OCO3)NC(=O)c2c(ccc3ccccc23)OC[C@@H](Cc2ccccc2)NC(=O)CN(CC[C@H]2CCCCO2)C(=O)[C@@H]1CC1CCCCC1 (racemic) [Example 289, (3RS,7S,13R)-N-(2-(benzo[d][1,3]dioxol-5-yl)ethyl)-13-benzyl-7-(cyclohexylmethyl)-6-methyl-1,5,8,11-tetraoxo-9-(2-((SR)-tetrahydro-2H-pyran-2-yl)ethyl)-1,2,3,4,5,6,7,8,9,10,11,12,13,14-tetradecahydronaphtho[1,2-p][1]oxa[4,7,10,14]tetraazacycloheptadecine-3-carboxamide] | 
260% |  | CN1C(=O)C[C@@H](C(=O)NCCc2ccc3c(c2)OCO3)NC(=O)c2c(ccc3ccccc23)OC[C@@H](Cc2ccccc2)NC(=O)CN(CCC2CCCCC2)C(=O)[C@@H]1CC1CCCC1 (racemic) [Example 290, (3RS,7S,13R)-N-(2-(benzo[d][1,3]dioxol-5-yl)ethyl)-13-benzyl-9-(2-cyclohexylethyl)-7-(cyclopentylmethyl)-6-methyl-1,5,8,11-tetraoxo-1,2,3,4,5,6,7,8,9,10,11,12,13,14-tetradecahydronaphtho[1,2-p][1]oxa[4,7,10,14]tetraazacycloheptadecine-3-carboxamide] | 
210% | 0.109 µM | CN1C(=O)C[C@@H](C(=O)NCCc2ccc3c(c2)OCO3)NC(=O)c2c(ccc3ccccc23)OC[C@@H](Cc2ccccc2)NC(=O)CN(CCC2CCCCC2)C(=O)[C@@H]1CC1CCCCC1 (racemic) [Example 291, (3RS,7S,13R)-N-(2-(benzo[d][1,3]dioxol-5-yl)ethyl)-13-benzyl-9-(2-cyclohexylethyl)-7-(cyclohexylmethyl)-6-methyl-1,5,8,11-tetraoxo-1,2,3,4,5,6,7,8,9,10,11,12,13,14-tetradecahydronaphtho[1,2-p][1]oxa[4,7,10,14]tetraazacycloheptadecine-3-carboxamide] | 
191% |  | CN1C(=O)C[C@@H](C(=O)NCCc2ccc3c(c2)OCO3)NC(=O)c2c(ccc3ccccc23)OC[C@@H](Cc2ccccc2)NC(=O)CN(CCC2CCCCC2)C(=O)[C@@H]1CC1CCC1 (racemic) [Example 292, (3RS,7S,13R)-N-(2-(benzo[d][1,3]dioxol-5-yl)ethyl)-13-benzyl-7-(cyclobutylmethyl)-9-(2-cyclohexylethyl)-6-methyl-1,5,8,11-tetraoxo-1,2,3,4,5,6,7,8,9,10,11,12,13,14-tetradecahydronaphtho[1,2-p][1]oxa[4,7,10,14]tetraazacycloheptadecine-3-carboxamide] | 
 |  | COc1cccc(CCNC(=O)[C@@H]2CC(=O)N(C)[C@@H](CC3CCCC3)C(=O)N(C[C@@H]3CCCCO3)CC(=O)N[C@H](Cc3ccccc3)COc3ccc4ccccc4c3C(=O)N2)c1 (racemic) [Example 293, (3RS,7S,13R)-13-benzyl-7-(cyclopentylmethyl)-N-(3-methoxyphenethyl)-6-methyl-1,5,8,11-tetraoxo-9-(((S)-tetrahydro-2H-pyran-2-yl)methyl)-1,2,3,4,5,6,7,8,9,10,11,12,13,14-tetradecahydronaphtho[1,2-p][1]oxa[4,7,10,14]tetraazacycloheptadecine-3-carboxamide] | 137%
 |  | COc1cccc(CCNC(=O)[C@@H]2CC(=O)N(C)[C@@H](CC3CCCC3)C(=O)N(C[C@@H]3CCCCO3)CC(=O)N[C@H](Cc3ccccc3)COc3ccc4ccccc4c3C(=O)N2)c1 (racemic) [Example 295, (3RS,7S,13R)-13-benzyl-7-(cyclopentylmethyl)-N-(3-methoxyphenethyl)-6-methyl-1,5,8,11-tetraoxo-9-(((R)-tetrahydro-2H-pyran-2-yl)methyl)-1,2,3,4,5,6,7,8,9,10,11,12,13,14-tetradecahydronaphtho[1,2-p][1]oxa[4,7,10,14]tetraazacycloheptadecine-3-carboxamide] | 174%

Structure (SMILES) | Emax (U2OS) | EC50 | Emax
COc1cccc(CCNC(=O)[C@@H]2CC(=O)N(C)[C@@H](CC3CCCCC3)C(=O)N(C[C@@H]3CCCCO3)CC(=O)N[C@H](Cc3ccccc3)COc3ccc4ccccc4c3C(=O)N2)c1 (racemic) [Example 294, (3RS,7S,13R)-13-benzyl-7-(cyclohexylmethyl)-N-(3-methoxyphenethyl)-6-methyl-1,5,8,11-tetraoxo-9-(((S)-tetrahydro-2H-pyran-2-yl)methyl)-1,2,3,4,5,6,7,8,9,10,11,12,13,14-tetradecahydronaphtho[1,2-p][1]oxa[4,7,10,14]tetraazacycloheptadecine-3-carboxamide] | 138% | 0.265 µM | 

Source: US20240208992A1, “MACROCYCLES AS CFTR MODULATORS” (Idorsia Pharmaceuticals Ltd, priority 2021, published 2024)
